Measured values: patent US10273468B2 (priority 2016, dated 2019)
“Also recorded” adds a separate entry of the source. Read-outs that look alike come from different tables or passages of the source.

Tests used:
[1] = molecular target: T1, Tet(55) (Unknown prokaryotic organism, UniProt A0A0H4TXY1); test: biochemical
[2] = molecular target: T2, Tet(50) (Unknown prokaryotic organism, UniProt A0A059WYP6); assay type: biochemical; conditions: 1 mM anhydrotetracycline, 0.1 mM tetracycline
[3] = molecular target: T2, Tet(50); test: biochemical
[4] = molecular target: T3, Tet(56) (Legionella longbeachae serogroup 1, UniProt D3HKY4); assay type: biochemical, L. longbeachae; conditions: 1 mM anhydrotetracycline, 0.1 mM tetracycline
[5] = molecular target: T1, Tet(55); test: biochemical; remark: listed apart in the source
[6] = tested on: L. longbeacheae; assay type: cell-based
[7] = molecular target: T4, Tet(X) (Bacteroides thetaiotaomicron, UniProt Q93L51); assay type: biochemical; conditions: 1 mM anhydrotetracycline, 0.1 mM tetracycline
[8] = tested on: Tet(51); assay type: biochemical; conditions: 1 mM anhydrotetracycline, 0.1 mM tetracycline
[9] = molecular target: T1, Tet(55); assay type: biochemical; conditions: 1 mM anhydrotetracycline, 0.1 mM tetracycline
[10] = molecular target: T3, Tet(56); test: biochemical
[11] = tested on: Tet(47-56); conditions: by Tet(47-56); cited from earlier work
[12] = molecular target: T4, Tet(X); conditions: by Tet(X); cited from earlier work

Molecule `CN(C)[C@@H]1C(O)=C(C(N)=O)C(=O)[C@@]2(O)C(=O)c3c(cc4c(Cl)ccc(O)c4c3O)C[C@@H]12` [anhydrodemeclocycline, (4S,4aS,12aS)-7-chloro-4-(dimethylamino)-3,10,11,12a-tetrahydroxy-1,12-dioxo-1,4,4a,5,12,12a-hexahydrotetracene-2-carboxamide] has an IC50 [1] of 9 ± 1 µM.
Molecule `Cc1c2c(c(O)c3c(O)ccc(Cl)c13)C(=O)[C@]1(O)C(=O)C(C(N)=O)=C(O)[C@@H](N(C)C)[C@@H]1C2` [anhydrochlortetracycline, (4S,4aS,12aS)-7-chloro-4-(dimethylamino)-3,10,11,12a-tetrahydroxy-6-methyl-1,12-dioxo-1,4,4a,5,12,12a-hexahydrotetracene-2-carboxamide] has an IC50 [1] of 9 ± 1 µM.
For `Cc1c2c(c(O)c3c(O)ccc(I)c13)C(=O)[C@]1(O)C(=O)C(C(N)=O)=C(O)[C@@H](N(C)C)[C@@H]1C2` [anhydroiodotetracycline, (4S,4aS,12aS)-4-(dimethylamino)-3,10,11,12a-tetrahydroxy-7-iodo-6-methyl-1,12-dioxo-1,4,4a,5,12,12a-hexahydrotetracene-2-carboxamide], the IC50 [1] was 6 ± 1 µM.
For `Cc1c2c(c(O)c3c(O)cccc13)C(=O)[C@]1(O)C(=O)C(C(N)=O)=C(O)[C@@H](N(C)C)[C@@H]1C2` [anhydrotetracycline], the “effect on enzymatic tetracycline degradation (HPLC)” value (“effect” for short) [2] was “sufficient to decrease or prevent tetracycline degradation”, the IC50 [3] was 83.2 ± 1.2 µM and the “effect” value [4] was “tetracycline is not degraded”. For the same molecule, the IC50 [5] was 25.6 ± 1.2 µM, the synergy with tetracycline [6] was “synergy was not observed” and the “effect” value [7] was “able to prevent tetracycline degradation; also recorded: sufficient to decrease or prevent tetracycline degradation”. For the same molecule, the “effect” value [8] was “sufficient to decrease or prevent tetracycline degradation”, the “effect” value [9] was “sufficient to decrease or prevent tetracycline degradation” and the IC50 [10] was 37.1 ± 1.1 µM. The enzymatic degradation [11] was “not degraded” and the enzymatic degradation [12] was “slowly degraded”.
